# Assay results reported in PubChem BioAssay (NCI).
#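 Compound exposure: 48 hours, 5 concentrations, 96-well plates. Here, GI50 denotes the concentration required for 50% inhibition of growth. TGI: concentration producing complete growth inhibition.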
# Legend:
# Assay in all cases: NCI tumour cell line growth inhibition, 48 h
# PC-3 prostate = test system: PC-3 prostate
# HCC-2998 colon = test system: HCC-2998 colon
# 786-0 renal = test system: 786-0 renal
# SF-539 CNS = test system: SF-539 CNS
# OVCAR-8 ovarian = test system: OVCAR-8 ovarian
# HOP-92 NSCLC = test system: HOP-92 NSCLC
# MDA-MB-231 breast = test system: MDA-MB-231 breast
# HS 578T breast = test system: HS 578T breast
# SK-OV-3 ovarian = test system: SK-OV-3 ovarian
# NCI-H226 lung = test system: NCI-H226 lung
# SK-MEL-5 melanoma = test system: SK-MEL-5 melanoma
# SF-268 CNS = test system: SF-268 CNS
# MOLT-4 leukemia = test system: MOLT-4 leukemia
# UO-31 renal = test system: UO-31 renal
# TK-10 renal = test system: TK-10 renal
# UACC-257 melanoma = test system: UACC-257 melanoma
# M14 melanoma = test system: M14 melanoma
# U251 CNS = test system: U251 CNS
# OVCAR-5 ovarian = test system: OVCAR-5 ovarian
# RPMI-8226 leukemia = test system: RPMI-8226 leukemia
# MALME-3M melanoma = test system: MALME-3M melanoma
# MDA-MB-435 = test system: MDA-MB-435
# DU-145 prostate = test system: DU-145 prostate
# A498 renal = test system: A498 renal
# SW-620 colon = test system: SW-620 colon
# NCI-H460 lung = test system: NCI-H460 lung
# K-562 leukemia = test system: K-562 leukemia
# SF-295 CNS = test system: SF-295 CNS
# HT29 colon = test system: HT29 colon
# CCRF-CEM leukemia = test system: CCRF-CEM leukemia
# OVCAR-3 ovarian = test system: OVCAR-3 ovarian
# SN12C renal = test system: SN12C renal
# A549 NSCLC = test system: A549 NSCLC
# SNB-75 CNS = test system: SNB-75 CNS
# OVCAR-4 ovarian = test system: OVCAR-4 ovarian
# KM12 colon = test system: KM12 colon
# UACC-62 melanoma = test system: UACC-62 melanoma
# BT-549 breast = test system: BT-549 breast
# SK-MEL-28 melanoma = test system: SK-MEL-28 melanoma
# HCT-116 colon = test system: HCT-116 colon
# MCF7 breast = test system: MCF7 breast
# ACHN renal = test system: ACHN renal
# COLO 205 colon = test system: COLO 205 colon
# SR leukemia = test system: SR leukemia
# IGROV1 ovarian = test system: IGROV1 ovarian
# NCI/ADR-RES ovarian = test system: NCI/ADR-RES ovarian
# RXF 393 renal = test system: RXF 393 renal
# HOP-62 NSCLC = test system: HOP-62 NSCLC
# LOX IMVI melanoma = test system: LOX IMVI melanoma
# HL-60(TB) leukemia = test system: HL-60(TB) leukemia
# CAKI-1 renal = test system: CAKI-1 renal
# SNB-19 CNS = test system: SNB-19 CNS
# T-47D breast = test system: T-47D breast
# SK-MEL-2 melanoma = test system: SK-MEL-2 melanoma
# HCT-15 colon = test system: HCT-15 colon
smiles,measurement,setting,value
Cc1ccc(NC2=C(Cl)C(=O)c3nc(C)ccc3C2=O)c(C)c1,GI50,PC-3 prostate,1560 nM
same,TGI,PC-3 prostate,3660 nM
same,GI50,HCC-2998 colon,1750 nM
same,TGI,HCC-2998 colon,3310 nM
same,GI50,786-0 renal,2000 nM
same,TGI,786-0 renal,4400 nM
same,GI50,SF-539 CNS,1700 nM
same,TGI,SF-539 CNS,3210 nM
same,GI50,OVCAR-8 ovarian,2410 nM
same,TGI,OVCAR-8 ovarian,7110 nM
same,GI50,HOP-92 NSCLC,2080 nM
same,TGI,HOP-92 NSCLC,4350 nM
same,GI50,MDA-MB-231 breast,1890 nM
same,TGI,MDA-MB-231 breast,4440 nM
same,GI50,HS 578T breast,2280 nM
same,TGI,HS 578T breast,5950 nM
same,GI50,SK-OV-3 ovarian,2750 nM
same,TGI,SK-OV-3 ovarian,10600 nM
same,GI50,NCI-H226 lung,1810 nM
same,TGI,NCI-H226 lung,4630 nM
same,GI50,SK-MEL-5 melanoma,1670 nM
same,TGI,SK-MEL-5 melanoma,3080 nM
same,GI50,SF-268 CNS,1860 nM
same,TGI,SF-268 CNS,4160 nM
same,GI50,MOLT-4 leukemia,1600 nM
same,TGI,MOLT-4 leukemia,4830 nM
same,GI50,UO-31 renal,1560 nM
same,TGI,UO-31 renal,3150 nM
same,GI50,TK-10 renal,2150 nM
same,TGI,TK-10 renal,3680 nM
same,GI50,UACC-257 melanoma,1500 nM
same,TGI,UACC-257 melanoma,2920 nM
same,GI50,M14 melanoma,1620 nM
same,TGI,M14 melanoma,3080 nM
same,GI50,U251 CNS,1760 nM
same,TGI,U251 CNS,3370 nM
same,GI50,OVCAR-5 ovarian,2260 nM
same,TGI,OVCAR-5 ovarian,4330 nM
same,GI50,RPMI-8226 leukemia,1540 nM
same,TGI,RPMI-8226 leukemia,4340 nM
same,GI50,MALME-3M melanoma,1960 nM
same,TGI,MALME-3M melanoma,3900 nM
same,GI50,MDA-MB-435,1960 nM
same,TGI,MDA-MB-435,3810 nM
same,GI50,DU-145 prostate,1710 nM
same,TGI,DU-145 prostate,3220 nM
same,GI50,A498 renal,1610 nM
same,TGI,A498 renal,6590 nM
same,GI50,SW-620 colon,2150 nM
same,TGI,SW-620 colon,4650 nM
same,GI50,NCI-H460 lung,1990 nM
same,TGI,NCI-H460 lung,4170 nM
same,GI50,K-562 leukemia,1620 nM
same,TGI,K-562 leukemia,5540 nM
same,GI50,SF-295 CNS,1820 nM
same,TGI,SF-295 CNS,3430 nM
same,GI50,HT29 colon,2610 nM
same,TGI,HT29 colon,7340 nM
same,GI50,CCRF-CEM leukemia,2020 nM
same,TGI,CCRF-CEM leukemia,6000 nM
same,GI50,OVCAR-3 ovarian,1420 nM
same,TGI,OVCAR-3 ovarian,2840 nM
same,GI50,SN12C renal,1950 nM
same,TGI,SN12C renal,5030 nM
same,GI50,A549 NSCLC,2220 nM
same,TGI,A549 NSCLC,5200 nM
same,GI50,SNB-75 CNS,1490 nM
same,TGI,SNB-75 CNS,3080 nM
same,GI50,OVCAR-4 ovarian,1530 nM
same,TGI,OVCAR-4 ovarian,3020 nM
same,GI50,KM12 colon,1740 nM
same,TGI,KM12 colon,3290 nM
same,GI50,UACC-62 melanoma,2000 nM
same,TGI,UACC-62 melanoma,4010 nM
same,GI50,BT-549 breast,1440 nM
same,TGI,BT-549 breast,2820 nM
same,GI50,SK-MEL-28 melanoma,1950 nM
same,TGI,SK-MEL-28 melanoma,3840 nM
same,GI50,HCT-116 colon,1520 nM
same,TGI,HCT-116 colon,3250 nM
same,GI50,MCF7 breast,1400 nM
same,TGI,MCF7 breast,3580 nM
same,GI50,ACHN renal,1910 nM
same,TGI,ACHN renal,3720 nM
same,GI50,COLO 205 colon,2060 nM
same,TGI,COLO 205 colon,4280 nM
same,GI50,SR leukemia,1280 nM
same,TGI,SR leukemia,4190 nM
same,GI50,IGROV1 ovarian,1850 nM
same,TGI,IGROV1 ovarian,3880 nM
same,GI50,NCI/ADR-RES ovarian,2170 nM
same,TGI,NCI/ADR-RES ovarian,6520 nM
same,GI50,RXF 393 renal,1410 nM
same,TGI,RXF 393 renal,2760 nM
same,GI50,HOP-62 NSCLC,1710 nM
same,TGI,HOP-62 NSCLC,3160 nM
same,GI50,LOX IMVI melanoma,1140 nM
same,TGI,LOX IMVI melanoma,3880 nM
same,GI50,HL-60(TB) leukemia,1740 nM
same,TGI,HL-60(TB) leukemia,4480 nM
same,GI50,CAKI-1 renal,1730 nM
same,TGI,CAKI-1 renal,3340 nM
same,GI50,SNB-19 CNS,1940 nM
same,TGI,SNB-19 CNS,4340 nM
same,GI50,T-47D breast,1660 nM
same,TGI,T-47D breast,4140 nM
same,GI50,SK-MEL-2 melanoma,1930 nM
same,TGI,SK-MEL-2 melanoma,3880 nM
same,GI50,HCT-15 colon,1300 nM
same,TGI,HCT-15 colon,3190 nM
